Results from US7771727B2, “Conjugates of therapeutic or cytotoxic agents and biologically active peptides” (The Administrators of the Tulane Educational Fund, priority 2002, dated 2010).
Entries after “also recorded” stand apart in the source; their conditions may differ. Read-outs that look alike come from different tables or passages of the source. Numbered stars: 1 amine (or outer) side, 2 acyl side, 3 side chain; on linkers, the order of the positions; unused ones are H or OH. Bridge positions count the residues as written; N and C are the ends. Square brackets hold non-standard residues; d marks the D form. Peptide text beside a SMILES is read from it. * marks the point of attachment. Camptothecin(20S-OCO) = CC[C@@]1(OC(=O)*)C(=O)OCc2c1cc1n(c2=O)Cc2cc3ccccc3nc2-1; NGly(2-(methylamino)ethyl) = CN(CCN(CC(=O)[*:2])[*:1])[*:3]; X1 = COc1ccc(/C=C\c2cc(OC)c(OC)c(OC)c2)cc1OC(=O)*; Gly(N-2-aminoethyl) = NCCNCC(=O)O; X2 = CN(C)CCN(CC(=O)[*:2])[*:1]; Gly(N(CH2)3NH2) = NCCCNCC(=O)O; Gly(N-CH2CH2OH) = O=C(O)CNCCO; Nle = CCCC[C@H](N)C(=O)O

Columns and labels:
[1] = camptothecin: tertiary hydroxyl, ring position 20; combretastatin: phenolic hydroxyl; cited from earlier work
[2] = tested on: human neuroblastoma IMR32 cells (somatostatin receptor overexpression); experiment: MTT cytotoxicity assay, IMR-32 cells; conditions: for cytotoxic activity: 3 days
Protocol: The cytotoxic activities of these conjugates were measured using a standard MTT assay kit (Promega Corporation, Madison, Wis.). Each compound was incubated for 3 days with human neuroblastoma IMR32 cells (somatostatin receptor overexpression) at different concentrations in quadruplate and IC50's were generated from the dose-response curves (FIG. 2).

tumor = experiment: Preliminary tumor bearing animal studies; format: in vivo; conditions: repeated intraperitoneal administration
in vitro = experiment: in vitro
Protocol: (§1) Each peptide conjugate was subjected to phosphate buffer and rat serum stability studies. The analogues were incubated in either 0.1 M phosphate buffer or fresh rat serum at 37° C. and aliquots were taken at different time points and examined by HPLC.

physchem = conditions: for Half Life Phosphate Buffer / half-life: buffer
Protocol: as §1

[3] = tested on: GH release from monolayer cultures of rat pituitary cells; format: cell-based; conditions: read-out: Growth Hormone Inhibition IC50
[4] = tested on: NCI-H69 small cell lung carcinomas (expression of SSTR2); conditions: nude mice; doses far below the maximum tolerated equivalent doses of camptothecin alone
[5] = Homo sapiens, IMR-32, 72 h, read-out: Cytotoxicity IC50, IMR-32 Cells
[6] = phosphate buffer, length of the experiment 50 h

CC[C@@]1(O)C(=O)OCc2c1cc1n(c2=O)Cc2cc3ccccc3nc2-1 [Camptothecin, reference compound]
pKa of hydroxyl group [1]: approximately 18 | IC50 [2, 5]: 2.21 ± 0.44 nM

COc1ccc(C[C@@H](O)c2cc(OC)c(OC)c(OC)c2)cc1O [Combretastatin, reference compound]
pKa of hydroxyl group [1]: approximately 10.3 | IC50 [2, 5]: 4.36 nM

CCCC[C@H](NC(=O)[C@@H](CO)NC(=O)CN(CCN)C(=O)O[C@]1(CC)C(=O)OCc2c1cc1n(c2=O)Cc2cc3ccccc3nc2-1)C(=O)N[C@H](Cc1ccc(O)cc1)C(=O)N[C@H](CO)C(=O)N[C@H]1CSSC[C@@H](C(=O)N[C@H](C(N)=O)[C@@H](C)O)NC(=O)[C@H]([C@@H](C)O)NC(=O)[C@H](CCCCN)NC(=O)[C@@H](Cc2c[nH]c3ccccc23)NC(=O)[C@H](Cc2ccccc2)NC1=O [Compound 1, camptothecin-carbonyl-N-(2-aminoethyl)-glycine-D-Ser-Nle-D-Tyr-D-Ser-cyclo[Cys-Phe-D-Trp-Lys-Thr-Cys]-Thr-amide] ({Camptothecin(20S-OCO)}-[Gly(N-2-aminoethyl)][dS][Nle][dY][dS]CF[dW]KTCT-NH2; disulfide 6-11)
cytotoxic effect in the tumor (tumor): equally effective | half-life (in vitro; rat, serum): 106 h | rat serum stability (in vitro; rat, serum): most stable | cytotoxic potency relative to compound 2 ([2]; IMR32 cells): seven times less potent than compound 2 | cytotoxic activity ([2]; IMR32 cells): next most potent; also recorded: high cytotoxicity | stability to cell media incubation conditions ([2]; cell media): very stable | IC50 ([2]; human): 374 ± 18 nM | buffer stability (physchem; [6]): complete buffer stability | IC50 ([3]; rat pituitary cells): 0.32 ± 0.02 nM

CCCC[C@H](NC(=O)[C@@H](CO)NC(=O)CN(CCNC)C(=O)O[C@]1(CC)C(=O)OCc2c1cc1n(c2=O)Cc2cc3ccccc3nc2-1)C(=O)N[C@H](Cc1ccc(O)cc1)C(=O)N[C@H](CO)C(=O)N[C@H]1CSSC[C@@H](C(=O)N[C@H](C(N)=O)[C@@H](C)O)NC(=O)[C@H]([C@@H](C)O)NC(=O)[C@H](CCCCN)NC(=O)[C@@H](Cc2c[nH]c3ccccc23)NC(=O)[C@H](Cc2ccccc2)NC1=O [Compound 2, camptothecin-carbonyl-N-(N-methyl-2-aminoethyl)-glycine-D-Ser-Nle-D-Tyr-D-Ser-cyclo[Cys-Phe-D-Trp-Lys-Thr-Cys]-Thr-amide] ({Camptothecin(20S-OCO)}-[NGly(2-(methylamino)ethyl)][dS][Nle][dY][dS]CF[dW]KTCT-NH2; disulfide 6-11)
cytotoxic effect in the tumor (tumor): equally effective | Half-Life Rat Serum (in vitro; rat, serum): 18 h | half-life (in vitro; rat, serum): 18 h | stability to cell media incubation conditions [2]: very stable | IC50 ([2]; human): 54.2 ± 6 nM | Half Life Phosphate Buffer (physchem): 123 h | half-life (physchem): ~120 h | IC50 [3]: 0.27 ± 0.02 nM | growth of transplanted NCI-H69 small cell lung carcinomas [4]: significantly stabilize the growth

CCCC[C@H](NC(=O)[C@@H](CO)NC(=O)CN(CCN(C)C)C(=O)O[C@]1(CC)C(=O)OCc2c1cc1n(c2=O)Cc2cc3ccccc3nc2-1)C(=O)N[C@H](Cc1ccc(O)cc1)C(=O)N[C@H](CO)C(=O)N[C@H]1CSSC[C@@H](C(=O)N[C@H](C(N)=O)[C@@H](C)O)NC(=O)[C@H]([C@@H](C)O)NC(=O)[C@H](CCCCN)NC(=O)[C@@H](Cc2c[nH]c3ccccc23)NC(=O)[C@H](Cc2ccccc2)NC1=O [Compound 3] ({Camptothecin(20S-OCO)}-[X2][dS][Nle][dY][dS]CF[dW]KTCT-NH2; disulfide 6-11)
rat serum stability (in vitro): most stable | half-life (in vitro; rat, serum): 59 h | IC50 ([2]; human): 571 ± 48 nM | buffer stability (physchem): complete buffer stability | Half Life Phosphate Buffer (physchem): Stable | IC50 [3]: 0.3 ± 0.04 nM

CCCC[C@H](NC(=O)[C@@H](CO)NC(=O)CN(CCCN)C(=O)O[C@]1(CC)C(=O)OCc2c1cc1n(c2=O)Cc2cc3ccccc3nc2-1)C(=O)N[C@H](Cc1ccc(O)cc1)C(=O)N[C@H](CO)C(=O)N[C@H]1CSSC[C@@H](C(=O)N[C@H](C(N)=O)[C@@H](C)O)NC(=O)[C@H]([C@@H](C)O)NC(=O)[C@H](CCCCN)NC(=O)[C@@H](Cc2c[nH]c3ccccc23)NC(=O)[C@H](Cc2ccccc2)NC1=O [Compound 4] ({Camptothecin(20S-OCO)}-[Gly(N(CH2)3NH2)][dS][Nle][dY][dS]CF[dW]KTCT-NH2; disulfide 6-11)
half-life (in vitro; rat, serum): 72 h | rat serum stability (in vitro; rat, serum): most stable | IC50 ([2]; human): > 1000 nM | buffer stability (physchem; [6]): complete buffer stability | IC50 ([3]; rat pituitary cells): 0.26 ± 0.03 nM

CCCC[C@H](NC(=O)[C@@H](CO)NC(=O)CN(CCO)C(=O)O[C@]1(CC)C(=O)OCc2c1cc1n(c2=O)Cc2cc3ccccc3nc2-1)C(=O)N[C@H](Cc1ccc(O)cc1)C(=O)N[C@H](CO)C(=O)N[C@H]1CSSC[C@@H](C(=O)N[C@H](C(N)=O)[C@@H](C)O)NC(=O)[C@H]([C@@H](C)O)NC(=O)[C@H](CCCCN)NC(=O)[C@@H](Cc2c[nH]c3ccccc23)NC(=O)[C@H](Cc2ccccc2)NC1=O [Compound 5] ({Camptothecin(20S-OCO)}-[Gly(N-CH2CH2OH)][dS][Nle][dY][dS]CF[dW]KTCT-NH2; disulfide 6-11)
IC50 ([2]; human): > 1000 nM | IC50 [3]: 0.49 ± 0.1 nM

CCCC[C@H](NC(=O)[C@@H](CO)NC(=O)CN(CCN)C(=O)Oc1cc(/C=C\c2cc(OC)c(OC)c(OC)c2)ccc1OC)C(=O)N[C@H](Cc1ccc(O)cc1)C(=O)N[C@H](CO)C(=O)N[C@H]1CSSC[C@@H](C(=O)N[C@H](C(N)=O)[C@@H](C)O)NC(=O)[C@H]([C@@H](C)O)NC(=O)[C@H](CCCCN)NC(=O)[C@@H](Cc2c[nH]c3ccccc23)NC(=O)[C@H](Cc2ccccc2)NC1=O [Compound 6, combretastatin-carbonyl-N-(2-aminoethyl)-glycine-D-Ser-Me-D-Tyr-D-Ser-cyclo[Cys-Phe-D-Trp-Lys-Thr-Cys]-Thr-amide] (X1-[Gly(N-2-aminoethyl)][dS][Nle][dY][dS]CF[dW]KTCT-NH2; disulfide 6-11)
Half-Life Rat Serum (in vitro; fresh rat serum, 37° C.): 4 h | half-life (in vitro; rat, serum): 4 h | cytotoxic activity ([2]; IMR32 cells): most cytotoxic | IC50 ([2]; read-out: Cytotoxicity IC50, IMR-32 Cells, 3 days incubation, MTT assay): 2.79 ± 0.33 nM | half-life (physchem): 30 h | conjugate that is free cytotoxin after 3 days (physchem; from stability data in buffer, after 3 days): 50% | IC50 ([3]; rat pituitary cells): 0.31 ± 0.1 nM
